Test results published in ChEMBL document CHEMBL1201862, “PubChem BioAssay data set” (2004).
pIC50: −log10 of the molar value. Calls of active or inactive are those of the source.

Assays:
[1] = target: Peroxisome proliferator-activated receptor gamma/Nuclear receptor coactivator 1 (Homo sapiens, UniProt P37231); assay: (§1) TR-FRET dose response biochemical High Throughput Screening assay for agonists of the steroid receptor coactivator 1 (SRC-1) recruitment by the peroxisome proliferator-activated receptor gamma (PPAR gamma): non-selective agonists. [Related pubchem assays (depositor defined):AID1300, AID1808, AID504735, AID631]; format: protein assay
[2] = target: Peroxisome proliferator-activated receptor gamma/Nuclear receptor coactivator 3 (Homo sapiens, UniProt P37231); assay: as §1, with “3 (SRC-3)” for “1 (SRC-1)”, “assays: 1301 (Confirmation screen.), 1048 (Primary screen.)]” for “assays (depositor defined):AID1300, AID1808, AID504735, AID631]”; format: functional
[3] = target: Peroxisome proliferator-activated receptor gamma/Nuclear receptor corepressor 2 (Homo sapiens, UniProt P37231+Q9Y618); assay: Counterscreen for NR2E3 inverse agonists: TR-FRET-based biochemical high throughput dose response assay to identify inverse agonists of the interaction between peroxisome proliferator-activated receptor gamma (PPARg) and nuclear receptor co-repressor 2 (NCOR2).; format: functional
[4] = target: Photoreceptor-specific nuclear receptor (Homo sapiens, UniProt Q9Y5X4); assay: ligands suppressing NR2E3 nuclear receptor activity – biochemical, TR-FRET, dose response (AID 463256); format: functional
Photoreceptor-specific nuclear receptor, sequence (Q9Y5X4 whole entry): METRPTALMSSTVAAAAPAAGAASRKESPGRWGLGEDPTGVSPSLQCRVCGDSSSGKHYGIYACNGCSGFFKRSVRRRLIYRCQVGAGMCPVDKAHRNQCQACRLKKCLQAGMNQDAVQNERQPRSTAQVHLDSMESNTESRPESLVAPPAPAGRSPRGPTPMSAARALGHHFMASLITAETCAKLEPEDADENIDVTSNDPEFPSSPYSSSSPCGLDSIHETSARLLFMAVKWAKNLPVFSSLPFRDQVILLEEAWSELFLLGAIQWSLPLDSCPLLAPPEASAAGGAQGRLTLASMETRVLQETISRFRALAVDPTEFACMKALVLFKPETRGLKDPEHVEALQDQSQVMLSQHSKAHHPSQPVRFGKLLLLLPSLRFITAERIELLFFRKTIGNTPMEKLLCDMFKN

[5] = target: Peroxisome proliferator-activated receptor gamma/Nuclear receptor coactivator 2 (Homo sapiens, UniProt P37231); assay: TR-FRET dose response biochemical High Throughput Screening assay for agonists of the steroid receptor coactivator 2 (SRC-2) recruitment by the peroxisome proliferator-activated receptor gamma (PPAR gamma): non-selective agonists. [Related pubchem assays: 1297, 1032 ]; format: functional
Peroxisome proliferator-activated receptor gamma/Nuclear receptor coactivator 2, sequence (P37231 whole entry): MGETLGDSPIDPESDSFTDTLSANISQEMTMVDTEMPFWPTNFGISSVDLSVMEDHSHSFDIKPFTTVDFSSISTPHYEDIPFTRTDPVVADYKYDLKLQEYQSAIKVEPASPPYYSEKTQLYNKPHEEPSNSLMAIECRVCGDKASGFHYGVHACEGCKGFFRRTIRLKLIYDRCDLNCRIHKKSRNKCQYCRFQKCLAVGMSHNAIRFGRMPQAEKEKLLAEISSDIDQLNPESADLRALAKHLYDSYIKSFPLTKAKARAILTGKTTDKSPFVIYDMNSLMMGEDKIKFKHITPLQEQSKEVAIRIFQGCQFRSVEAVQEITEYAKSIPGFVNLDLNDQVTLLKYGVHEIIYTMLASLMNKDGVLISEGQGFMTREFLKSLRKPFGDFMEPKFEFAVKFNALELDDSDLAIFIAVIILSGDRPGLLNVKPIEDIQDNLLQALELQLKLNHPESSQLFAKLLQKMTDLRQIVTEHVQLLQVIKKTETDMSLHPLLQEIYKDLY
Peroxisome proliferator-activated receptor gamma/Nuclear receptor coactivator 2, sequence (Q15596 whole entry, further chain): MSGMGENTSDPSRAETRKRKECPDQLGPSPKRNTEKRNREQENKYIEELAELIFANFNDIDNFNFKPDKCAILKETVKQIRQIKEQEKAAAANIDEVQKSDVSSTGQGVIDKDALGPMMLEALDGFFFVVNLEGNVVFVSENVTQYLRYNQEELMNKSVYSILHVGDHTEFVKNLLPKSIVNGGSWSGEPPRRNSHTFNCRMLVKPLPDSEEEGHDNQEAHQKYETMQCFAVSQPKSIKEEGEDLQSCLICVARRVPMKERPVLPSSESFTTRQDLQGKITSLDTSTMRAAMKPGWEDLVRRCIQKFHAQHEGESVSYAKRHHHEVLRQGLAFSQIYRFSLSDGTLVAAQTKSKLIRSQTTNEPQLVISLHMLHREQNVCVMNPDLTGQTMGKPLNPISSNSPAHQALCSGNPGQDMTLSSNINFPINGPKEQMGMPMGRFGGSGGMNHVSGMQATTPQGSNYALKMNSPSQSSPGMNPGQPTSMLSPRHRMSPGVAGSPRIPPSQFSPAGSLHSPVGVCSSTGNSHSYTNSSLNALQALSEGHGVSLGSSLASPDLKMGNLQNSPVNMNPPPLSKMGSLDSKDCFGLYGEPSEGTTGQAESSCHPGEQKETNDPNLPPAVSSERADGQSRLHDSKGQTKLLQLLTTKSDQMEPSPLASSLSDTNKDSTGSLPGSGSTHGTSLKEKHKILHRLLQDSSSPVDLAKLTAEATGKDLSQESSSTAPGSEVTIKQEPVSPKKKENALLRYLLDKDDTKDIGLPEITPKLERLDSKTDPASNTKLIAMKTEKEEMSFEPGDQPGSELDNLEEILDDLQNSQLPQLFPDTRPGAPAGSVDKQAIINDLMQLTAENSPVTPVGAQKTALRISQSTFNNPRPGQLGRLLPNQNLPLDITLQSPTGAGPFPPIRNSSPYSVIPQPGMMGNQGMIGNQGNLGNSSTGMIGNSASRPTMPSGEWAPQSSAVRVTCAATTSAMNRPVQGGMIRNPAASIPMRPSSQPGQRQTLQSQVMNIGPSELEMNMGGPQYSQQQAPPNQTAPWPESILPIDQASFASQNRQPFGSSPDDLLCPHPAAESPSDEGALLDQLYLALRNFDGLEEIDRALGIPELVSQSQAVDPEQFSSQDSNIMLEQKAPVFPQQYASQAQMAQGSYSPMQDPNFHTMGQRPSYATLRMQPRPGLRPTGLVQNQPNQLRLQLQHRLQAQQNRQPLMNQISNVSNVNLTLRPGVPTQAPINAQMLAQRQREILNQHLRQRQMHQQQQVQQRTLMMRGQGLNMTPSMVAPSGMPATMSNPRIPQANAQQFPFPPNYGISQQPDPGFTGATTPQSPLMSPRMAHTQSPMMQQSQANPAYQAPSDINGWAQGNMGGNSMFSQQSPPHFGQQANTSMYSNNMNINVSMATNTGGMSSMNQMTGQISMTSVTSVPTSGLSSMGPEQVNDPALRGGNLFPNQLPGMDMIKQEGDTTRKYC

Mu-type opioid receptor [6] = target: T1, Mu-type opioid receptor (Homo sapiens, UniProt P35372); assay: mu opioid receptor activators, image-based, SAR follow-up (AID 2352); format: functional
T1 sequence (P35372 whole entry): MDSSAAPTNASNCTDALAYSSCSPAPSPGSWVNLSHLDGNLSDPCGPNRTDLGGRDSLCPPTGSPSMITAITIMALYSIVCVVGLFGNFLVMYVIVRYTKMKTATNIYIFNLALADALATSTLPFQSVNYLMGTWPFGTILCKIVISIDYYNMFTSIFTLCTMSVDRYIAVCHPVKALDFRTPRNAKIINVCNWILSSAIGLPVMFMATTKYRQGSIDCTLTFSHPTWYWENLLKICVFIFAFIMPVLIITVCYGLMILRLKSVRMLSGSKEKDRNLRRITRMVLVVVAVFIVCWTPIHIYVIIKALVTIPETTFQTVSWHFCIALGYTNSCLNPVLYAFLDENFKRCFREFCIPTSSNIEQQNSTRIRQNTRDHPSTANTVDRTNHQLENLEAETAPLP

[7] = target: T2, Delta-type opioid receptor (Homo sapiens, UniProt P41143); assay: DOR agonists, SAR follow-up, image-based (AID 2370); format: functional
T2 sequence (P41143 whole entry): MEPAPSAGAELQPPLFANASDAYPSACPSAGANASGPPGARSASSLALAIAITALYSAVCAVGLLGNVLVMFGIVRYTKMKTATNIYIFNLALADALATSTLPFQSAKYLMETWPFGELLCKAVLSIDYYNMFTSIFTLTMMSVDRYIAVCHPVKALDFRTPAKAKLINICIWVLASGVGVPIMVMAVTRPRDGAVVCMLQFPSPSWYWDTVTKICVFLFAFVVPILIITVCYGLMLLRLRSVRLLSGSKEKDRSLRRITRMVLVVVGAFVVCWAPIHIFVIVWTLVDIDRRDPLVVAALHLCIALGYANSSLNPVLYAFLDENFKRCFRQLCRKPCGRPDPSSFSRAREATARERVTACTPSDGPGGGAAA

[8] = target: T3, Kappa-type opioid receptor (Homo sapiens, UniProt P41145); assay: kappa opioid receptor blockers, image-based, SAR follow-up (AID 2348); format: functional
T3 sequence (P41145 whole entry): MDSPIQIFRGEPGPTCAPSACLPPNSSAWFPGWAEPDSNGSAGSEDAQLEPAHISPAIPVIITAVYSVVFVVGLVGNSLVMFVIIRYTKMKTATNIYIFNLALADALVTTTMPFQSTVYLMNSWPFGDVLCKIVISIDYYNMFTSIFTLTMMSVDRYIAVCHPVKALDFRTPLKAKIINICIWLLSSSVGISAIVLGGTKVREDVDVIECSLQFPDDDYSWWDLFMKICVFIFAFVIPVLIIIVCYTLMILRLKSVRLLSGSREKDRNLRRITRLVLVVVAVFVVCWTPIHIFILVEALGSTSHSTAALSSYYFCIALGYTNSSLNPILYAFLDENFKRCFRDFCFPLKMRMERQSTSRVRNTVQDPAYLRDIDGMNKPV

Mu-type opioid receptor [9] = target: T1, Mu-type opioid receptor; assay: mu opioid receptor blockers – image-based, SAR follow-up (AID 2420); format: functional;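 further: compounds added before stimulation of receptor with agonist DAMGO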
[10] = target: T3, Kappa-type opioid receptor; assay: kappa opioid receptor activation potency – imaging, image-based, SAR follow-up (AID 2359); format: functional
[11] = target: T2, Delta-type opioid receptor; assay: delta opioid receptor blockers – image-based, SAR follow-up (AID 2357); format: functional
[12] = target: T3, Kappa-type opioid receptor; assay: kappa opioid receptor blockers, cell-based, luminescence, beta-arrestin, SAR follow-up (AID 2285); format: functional
[13] = test system: Streptococcus sp. 'group A'; assay: Streptococcus pyogenes SK(-)GAS viability under kanamycin – luminescence, BacTiterGlo, confirmation, counter-screen for streptokinase expression inhibitor project, dose response (AID 1900); format: functional, organism-based
Streptokinase A = target: T4, Streptokinase A (Streptococcus pyogenes serotype M1, UniProt P10520); assay: viability-normalized secreted streptokinase activity reduction – plasminogen activation absorbance, OD405, dose response (AID 1914); format: functional, Streptococcus pyogenes M1 GAS;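 further: secreted streptokinase activity via plasminogen activation per viability signal from cell pellet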
T4 sequence (P10520 whole entry): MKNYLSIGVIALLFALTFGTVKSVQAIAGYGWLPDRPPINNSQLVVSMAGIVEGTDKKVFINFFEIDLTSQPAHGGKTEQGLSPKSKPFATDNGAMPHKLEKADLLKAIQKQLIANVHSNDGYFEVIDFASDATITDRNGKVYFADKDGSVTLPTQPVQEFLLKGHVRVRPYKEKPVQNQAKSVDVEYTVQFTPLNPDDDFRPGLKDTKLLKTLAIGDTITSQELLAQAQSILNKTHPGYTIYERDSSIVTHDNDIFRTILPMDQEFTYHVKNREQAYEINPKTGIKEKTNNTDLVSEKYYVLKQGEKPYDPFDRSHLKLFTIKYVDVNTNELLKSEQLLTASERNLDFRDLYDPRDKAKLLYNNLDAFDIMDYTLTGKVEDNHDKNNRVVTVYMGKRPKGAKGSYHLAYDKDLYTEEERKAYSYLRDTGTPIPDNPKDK

[14] = Trypanosoma cruzi growth suppression in host cells – NIH3T3 host cells, beta-gal luminescence, confirmation (AID 2044); format: functional, cell-based;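 further: intracellular parasites grown in NIH/3T3 mouse fibroblasts as host cells; luminescent beta-galactosidase reporter signal from transgenic T. cruzi replicating inside host cells; inhibitors lower the luminescence signal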
[15] = target: T3, Kappa-type opioid receptor; format: functional
[16] = NIH3T3 cell viability loss – ATP luminescence, mouse fibroblasts, counter-screen, dose response (AID 2010); format: functional, cell-based;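 further: cells exposed to compound for about 90 hours before reading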
Beta-galactosidase = Beta-galactosidase (Escherichia coli, UniProt Q8VNN2); format: functional
[17] = target: T3, Kappa-type opioid receptor; format: functional; remark: listed apart in the source
Streptococcus = assay: GAS UMAA2166 growth inhibition – luminescence, BacTiterGlo, counter-screen for streptokinase expression inhibitor project, dose response (AID 1915); format: functional, organism-based;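 further: potency for reduction of bacterial viability or growth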
[18] = target: T5, Polyadenylate-binding protein 1 (Homo sapiens, UniProt P11940); assay: MLLE binding blockers, Cy5 peptide tracer – biochemical, fluorescence polarization, Cy5-PAM2 peptide, secondary, miRNA deadenylation inhibitor project, dose response (AID 602260); format: functional; details: read-out: IC50_Mean
T5 sequence (P11940 whole entry, the tested form may be a part): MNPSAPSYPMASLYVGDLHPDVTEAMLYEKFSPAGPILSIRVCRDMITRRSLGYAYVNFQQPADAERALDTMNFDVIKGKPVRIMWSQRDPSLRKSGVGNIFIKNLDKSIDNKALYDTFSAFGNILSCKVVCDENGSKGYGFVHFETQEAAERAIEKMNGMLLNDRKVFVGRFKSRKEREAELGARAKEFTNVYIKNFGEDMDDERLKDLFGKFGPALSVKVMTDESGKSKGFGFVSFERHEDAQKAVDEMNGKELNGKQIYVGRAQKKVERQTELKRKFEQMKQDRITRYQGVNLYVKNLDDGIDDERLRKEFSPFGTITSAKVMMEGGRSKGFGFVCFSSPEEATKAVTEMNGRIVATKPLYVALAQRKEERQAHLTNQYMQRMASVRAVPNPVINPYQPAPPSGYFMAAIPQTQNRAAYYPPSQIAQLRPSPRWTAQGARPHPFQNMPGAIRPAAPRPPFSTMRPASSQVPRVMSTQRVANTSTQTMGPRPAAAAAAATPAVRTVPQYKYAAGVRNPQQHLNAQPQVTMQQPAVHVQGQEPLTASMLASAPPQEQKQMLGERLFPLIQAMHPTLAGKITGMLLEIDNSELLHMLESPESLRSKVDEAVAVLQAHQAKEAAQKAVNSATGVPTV

[19] = target: T5, Polyadenylate-binding protein 1; assay: MLLE domain peptide-binding blockers, IC50 – biochemical, fluorescence polarization, FITC-PAM2 peptide, dose response (AID 602259); format: functional; details: read-out: IC50_Mean
[20] = loss of viability in HepG2 cells – cell-based, CellTiter-Glo, cherry-picked, cytotoxicity control for Shn3 inhibitor project, dose response (AID 624134); format: functional
[21] = non-specific 3'UTR reporter inhibition in Clone20-Shn3RL – cell-based, Renilla luciferase, cherry-picked, counter-screen for Shn3 inhibitor project, dose response (AID 624133); format: functional

SMILES	EC50 [1]	EC50 [2]	EC50 [5]	EC50 (Mu-type opioid receptor [6])	EC50 [7]	IC50 [8]	IC50 (Mu-type opioid receptor [9])	EC50 [10]	IC50 [11]	IC50 [12]	further results
COc1ccc(-c2cn3c(C)c(C(=O)Nc4cc(NC(C)=O)ccc4OC)sc3n2)cc1	12.9 µM (inactive)	> 79.4 µM (not active)	15 µM (not active)								IC50 [3]: 18 µM (not active); IC50 [4]: 23.2 µM (not active)
Cc1ccc(S(=O)(=O)NCc2ccc(C(=O)N3CCN(Cc4ccccc4)CC3)cc2)cc1				> 32 µM (inactive)	> 32 µM (inactive)	> 32 µM (inactive)	> 32 µM (inactive)	> 32 µM (inactive)	> 32 µM (inactive)	> 10 µM (inactive)	
Cn1c(=O)cc(SCC(=O)NCc2ccco2)c2ccccc21	> 79.4 µM (inactive)	> 79.4 µM (not active)	> 79.4 µM (not active)								
O=C(NC(NC(=S)Nc1c(Cl)cc(Cl)cc1Cl)C(Cl)(Cl)Cl)OCc1ccccc1 (centres undefined)				> 32 µM (inactive)	> 32 µM (inactive)	0.517 µM (active)	> 32 µM (inactive)	> 32 µM (inactive)	> 32 µM (inactive)	0.846 µM (active)	EC50 [13]: 0.562 µM (active); EC50 (Streptokinase A): 1.83 µM (active); EC50 [14]: 1.65 µM (active); IC50 [15]: 1.88 µM (active); EC50 [16]: > 60 µM (not active); EC50 (Beta-galactosidase): > 31.5 µM (inactive); pIC50 [17]: 6.20; EC50 (Streptococcus): 39.3 µM (inconclusive); IC50 [18]: > 66 µM (inactive); IC50 [19]: > 66 µM (inactive); AC50 [20]: 18.5 µM (active); AC50 [21]: 2.04 µM (active)
